The values below come from publication PMC12495087 (ESMO Open, 2025).

In one test the test system is RET-mutant MTC. The test is described as follows: phase I study: tumor response per RECIST v.1.1, MTC. The format is in vivo, human.
In the next test the test system is RET G810. Conditions: cited from earlier work.

With `COc1cc2cc(-c3ccc(CC(=O)Nc4cc(C(C)(C)C(F)(F)F)no4)cn3)cnc2cc1OC` [BOS172738], the “median PFS” value in the test with RET-mutant MTC (MTC) came to 12.75 months. Also, the “median DoR” value with RET-mutant MTC (confirmed responders with MTC) was determined as 19.15 months. Besides, the “activity against RET G810 resistance” value with RET G810 is listed as “able to overcome RET G810 resistance”.
